From ChEMBL document CHEMBL6078626, “Recent advancements in the structural exploration of TGR5 agonists for diabetes treatment” (RSC Med Chem, 2024)

Experiments:
[1] = molecular target: T1, G-protein coupled bile acid receptor 1 (Homo sapiens, UniProt Q8TDU6); experiment: Agonist activity at TGR5 (unknown origin) by TR-FRET assay; assay type: functional
T1 sequence (Q8TDU6 whole entry): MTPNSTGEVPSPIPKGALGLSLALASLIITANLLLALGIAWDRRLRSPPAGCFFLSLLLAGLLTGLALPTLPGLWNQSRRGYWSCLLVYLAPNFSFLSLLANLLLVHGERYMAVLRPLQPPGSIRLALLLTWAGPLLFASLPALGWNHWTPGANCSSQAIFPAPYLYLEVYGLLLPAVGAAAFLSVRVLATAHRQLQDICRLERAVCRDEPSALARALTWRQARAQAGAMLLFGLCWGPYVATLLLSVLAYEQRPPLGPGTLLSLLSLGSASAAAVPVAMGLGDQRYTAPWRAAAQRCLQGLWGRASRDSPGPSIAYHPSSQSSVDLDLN

[2] = molecular target: T1, G-protein coupled bile acid receptor 1; experiment: Agonist activity at human TGR5 expressed in HEK293 cells; assay type: functional, cell-based
[3] = molecular target: T1, G-protein coupled bile acid receptor 1; experiment: Agonist activity at TGR5 (unknown origin) expressed in HEK293T cells assessed as cAMP level by TR-FRET analysis; assay type: functional, cell-based
[4] = molecular target: T1, G-protein coupled bile acid receptor 1; experiment: Agonist activity at human TGR5; assay type: functional

| Compound | EC50 [1] [nM] | also measured |
| --- | --- | --- |
| O=C(c1cccnc1Oc1cc(Cl)ccc1Cl)N1CCCc2ccc(F)cc21 | 50 |  |
| Fc1cccc(F)c1-c1ccncc1CN1C(c2ccco2)=NOC1c1cc(C(F)(F)F)cc(C(F)(F)F)c1Cl (configuration not stated) |  | EC50 [2]: 15 nM |
| COc1ccc(C(C)(C)c2cn(-c3ccc(F)cc3)c(SCc3c(F)cccc3Cl)n2)cc1OC |  | EC50 [3]: 25 nM |
| O=C(c1cccnc1Oc1cc(Cl)ccc1Cl)N1CCCc2cc(F)ccc21 | 20 |  |
| O=C(c1cccnc1Oc1cc(Cl)ccc1Cl)N1CCN(C2CC2)c2ccccc21 | 10 |  |
| O=C(c1cccnc1Oc1cc(Cl)ccc1Cl)N1CCCc2cc(F)c(F)cc21 | 50 |  |
| COc1ccc(S(=O)(=O)N2CCN(S(=O)(=O)c3ccc(OC)c(OC)c3)CC2)cc1OC |  | EC50 [4]: 1300 nM |
